This note sets out measurements from patent publication US20110207796A1, “ALPHA-SYNUCLEIN KINASE” (Elan Pharma International Limited, priority 2008, published 2011).

For one assay, the system named is brain p-synuclein. Kind of assay: synuclein phosphorylation in brains of FVB mice treated with kainic acid (immunohistochemistry, ELISA). To be noted: immunohistochemistry and ELISA. The assay is classed as in vivo, mouse. From the text:
This example describes up regulation of phosphorylated α-synuclein (p-synuclein) in wildtype mice after kainic acid administration. Several articles have reported that excitotoxicity can result in an upregulation of polo-like kinases. […] Thus the kainic acid model provides better understanding the involvement of the PLK2 p-synuclein pathway in neurodegeneration and may be used in screening assays of the invention.

The next assay relates to panel of 260 kinases. As to the kind of experiment: screen against a panel of 260 kinases at 10 uM. The assay is classed as biochemical.
In assay [1] the test system is endogenous kinase (synuclein phosphorylation). Kind of assay: HEK-293 cells overexpressing synuclein with empty vector, inhibition of synuclein phosphorylation. It is filed as cell-based, human. Particulars: for pEC50: Homo sapiens. As for the experimental part: (§1) All vectors had the sequence coding for the protein of interest. Transfection was accomplished using Lipofectamine 2000 (Invitrogen, Carlsbad, Calif.) with 0.08 μg vector. Cells were washed and harvested 48 hours post-transfection. A Micro BCA (Pierce) total protein assay and total synuclein and phospho-synuclein ELISAs were performed on each plate of treated cells.

Assay [2] deals with synuclein phosphorylation (serine-129). Kind of assay: inhibition of synuclein phosphorylation across the cellular paradigms (primary neuronal cultures and 293 cells). The assay is classed as cell-based, mouse, rat and human. To be noted: Homo sapiens, HEK293, read-out: EC50 inhibition of synuclein phosphorylation, cellular paradigms.
Assay [3] deals with synuclein phosphorylation by endogenous kinase. Kind of assay: kinase inhibitor treatment of mouse cortical cultures (MCC), total and phospho-synuclein ELISA. The assay is classed as cell-based. As for the experimental part:
Mouse cortical cultures from fetal (i) Swiss-Webster, (ii) C56BL/6 WT and (iii) C56BL/6 E46K-Synuclein Trangenic mice were prepared and maintained in B27/DMEM/1% Penicillin-Streptomycin at 37° C./10% CO2 for three to fourteen days and then treated with kinase inhibitors.
Cultures were exposed to inhibitors for two hours in B27/DMEM/1% Penicillin-Streptomycin. Cells were immediately washed in 100 μL of PBS plus Mg^2+ and Ca^2+, and harvested in ice-cold CEB minus EGTA plus protease inhibitors, frozen on dry ice and stored at −80° C. until processed. A Micro BCA (Pierce) total protein assay, and total synuclein and phospho-synuclein ELISAs were performed on each plate of treated cells using standard methods.

Assay [4] concerns synuclein phosphorylation by constitutively active PLK2 (caPLK2). Kind of assay: kinase inhibitor treatment of RVM cultures transduced with E46K-synuclein plus ca-PLK2. The assay is classed as cell-based. To be noted: rat ventral mesencephalon cultures. How it is done: (§2) Rat Ventral Mesencephalon (RVM) cultures were prepared from E15 Wistar rats. The RVM cultures were cultured for 2 days and transduced with 0.75 MOI E46K-Synuclein lentivirus alone, or 0.75 MOI E46K-Synuclein lentivirus plus 0.75 MOI ca-PLK2 lentivirus. […] Transduced cultures were maintained in neuronal media with B27/1% FBS and 37° C./5% CO2 until treated with inhibitors. On DIV 17 (which corresponds to 15 days after viral transduction of the cultures) cells were treated with inhibitors for two hours. Cells were then harvested as detailed above in neuronal media with B27/1% FBS. A Micro BCA (Pierce) total protein assay, and total synuclein and phospho-synuclein ELISAs were performed on each plate of treated cells using standard methods.

Another assay concerns the target T1, PLK1 (Homo sapiens, UniProt P53350).
T1 construct: expressed in transfected cells; host or cells: HEK-293
Kind of assay: HEK-293 cells overexpressing synuclein and PLK1, inhibition of synuclein phosphorylation. It is filed as cell-based. How it is done: as §1

Assay [5] relates to synuclein phosphorylation by endogenous kinase. Kind of assay: kinase inhibitor treatment of rat ventral mesencephalon (RVM) cultures transduced with E46K-synuclein. The assay is classed as cell-based. As for the experimental part: as §2
Assay [6] has as its target T2, PLK2 (Homo sapiens, UniProt Q9NYY3). Kind of assay: HEK-293 cells overexpressing synuclein and PLK2, inhibition of synuclein phosphorylation. The arrangement: expressed in transfected cells; host or cells: HEK-293. It is filed as cell-based. How it is done: as §1
Assay [7] deals with T2, PLK2. Kind of assay: in vitro biochemical assay of PLK2-driven synuclein phosphorylation. As for the experimental part:
The reaction was incubated at 37° C. The activity was analyzed by autoradiography.
In vitro biochemical assays using each of the four PLK family members as the kinase to phosphorylate synuclein were conducted.

The target in the next assay is T3, PLK3 (Homo sapiens, UniProt Q9H4B4).
T3 construct: expressed in transfected cells; host or cells: HEK-293
T3 sequence (Q9H4B4 whole entry): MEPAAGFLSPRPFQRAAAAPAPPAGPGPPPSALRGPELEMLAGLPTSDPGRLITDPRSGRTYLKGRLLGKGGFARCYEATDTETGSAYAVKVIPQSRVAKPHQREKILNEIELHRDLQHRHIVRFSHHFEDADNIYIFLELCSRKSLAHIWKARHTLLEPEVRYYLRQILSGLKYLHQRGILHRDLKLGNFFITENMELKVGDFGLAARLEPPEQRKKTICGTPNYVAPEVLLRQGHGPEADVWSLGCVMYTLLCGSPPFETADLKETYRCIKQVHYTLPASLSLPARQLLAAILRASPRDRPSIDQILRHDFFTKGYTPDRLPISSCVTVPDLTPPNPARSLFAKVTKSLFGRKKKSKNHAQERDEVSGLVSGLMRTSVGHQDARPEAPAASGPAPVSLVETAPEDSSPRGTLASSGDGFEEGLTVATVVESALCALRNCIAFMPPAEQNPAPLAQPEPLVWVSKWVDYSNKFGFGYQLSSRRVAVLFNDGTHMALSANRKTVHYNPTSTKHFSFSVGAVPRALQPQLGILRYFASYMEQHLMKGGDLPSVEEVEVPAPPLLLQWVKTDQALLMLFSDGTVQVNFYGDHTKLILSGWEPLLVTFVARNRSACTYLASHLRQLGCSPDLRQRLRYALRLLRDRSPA
Kind of assay: HEK-293 cells overexpressing synuclein and PLK3, inhibition of synuclein phosphorylation. The assay is classed as cell-based. How it is done: as §1

The target of the next assay is T4, PLK4 (Homo sapiens, UniProt O00444).
T4 sequence (O00444 1-970): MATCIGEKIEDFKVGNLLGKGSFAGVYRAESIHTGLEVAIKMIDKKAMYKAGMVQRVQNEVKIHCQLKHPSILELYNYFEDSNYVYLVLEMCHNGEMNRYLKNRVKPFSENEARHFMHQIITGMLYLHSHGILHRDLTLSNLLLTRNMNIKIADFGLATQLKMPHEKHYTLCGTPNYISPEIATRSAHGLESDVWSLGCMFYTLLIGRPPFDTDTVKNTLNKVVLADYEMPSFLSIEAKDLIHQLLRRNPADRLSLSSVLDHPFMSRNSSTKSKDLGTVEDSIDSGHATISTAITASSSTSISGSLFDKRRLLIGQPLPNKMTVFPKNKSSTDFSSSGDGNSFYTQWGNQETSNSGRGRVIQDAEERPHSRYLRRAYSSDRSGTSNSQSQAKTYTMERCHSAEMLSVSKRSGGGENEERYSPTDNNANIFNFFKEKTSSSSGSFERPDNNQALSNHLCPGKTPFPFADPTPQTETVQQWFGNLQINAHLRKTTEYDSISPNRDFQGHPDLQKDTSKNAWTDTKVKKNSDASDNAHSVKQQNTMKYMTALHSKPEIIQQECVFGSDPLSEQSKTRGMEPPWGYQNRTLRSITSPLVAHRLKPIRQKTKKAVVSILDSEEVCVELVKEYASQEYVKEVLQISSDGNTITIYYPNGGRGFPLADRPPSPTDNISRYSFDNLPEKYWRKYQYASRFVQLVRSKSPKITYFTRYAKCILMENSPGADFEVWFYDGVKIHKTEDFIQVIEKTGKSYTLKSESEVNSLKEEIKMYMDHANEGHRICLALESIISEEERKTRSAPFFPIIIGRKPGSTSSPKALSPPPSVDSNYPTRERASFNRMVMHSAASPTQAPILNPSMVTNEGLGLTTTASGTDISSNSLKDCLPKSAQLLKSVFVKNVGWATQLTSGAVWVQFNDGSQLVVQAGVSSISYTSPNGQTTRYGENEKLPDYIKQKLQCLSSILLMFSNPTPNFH
Kind of assay: HEK-293 cells overexpressing synuclein and PLK4, inhibition of synuclein phosphorylation. The assay is classed as cell-based. To be noted: HEK-293, Table 22. How it is done:
as §1

[8] abbreviates: Swiss-Webster mouse cortical cultures, read-out: EC50, Swiss-Webster MCC.
[9] abbreviates: WT mouse cortical cultures, read-out: EC50, WT-MCC.

Structures are written as SMILES. pEC50, pIC50: −log10 of the molar value. Where two headings read alike, the source gives them in different places.

T2 sequence (Q9NYY3 whole entry): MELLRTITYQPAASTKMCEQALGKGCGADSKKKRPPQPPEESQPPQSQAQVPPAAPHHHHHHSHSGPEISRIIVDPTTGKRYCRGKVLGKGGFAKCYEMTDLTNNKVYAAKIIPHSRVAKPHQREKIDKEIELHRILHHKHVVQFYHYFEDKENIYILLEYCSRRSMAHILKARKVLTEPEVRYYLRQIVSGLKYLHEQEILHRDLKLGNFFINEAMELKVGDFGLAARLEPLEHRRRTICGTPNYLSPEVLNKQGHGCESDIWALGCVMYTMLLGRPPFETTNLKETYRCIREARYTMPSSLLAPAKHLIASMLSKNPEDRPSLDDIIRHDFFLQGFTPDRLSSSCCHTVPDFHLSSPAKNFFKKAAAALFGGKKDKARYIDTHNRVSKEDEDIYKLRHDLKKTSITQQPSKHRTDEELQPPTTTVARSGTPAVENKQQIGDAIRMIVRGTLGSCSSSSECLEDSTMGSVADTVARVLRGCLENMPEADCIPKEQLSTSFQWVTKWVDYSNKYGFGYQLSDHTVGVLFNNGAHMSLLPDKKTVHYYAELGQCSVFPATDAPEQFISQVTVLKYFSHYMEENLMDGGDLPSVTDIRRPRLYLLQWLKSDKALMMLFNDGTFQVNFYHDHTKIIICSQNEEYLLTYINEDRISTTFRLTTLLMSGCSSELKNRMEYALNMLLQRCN
T1 sequence (P53350 whole entry): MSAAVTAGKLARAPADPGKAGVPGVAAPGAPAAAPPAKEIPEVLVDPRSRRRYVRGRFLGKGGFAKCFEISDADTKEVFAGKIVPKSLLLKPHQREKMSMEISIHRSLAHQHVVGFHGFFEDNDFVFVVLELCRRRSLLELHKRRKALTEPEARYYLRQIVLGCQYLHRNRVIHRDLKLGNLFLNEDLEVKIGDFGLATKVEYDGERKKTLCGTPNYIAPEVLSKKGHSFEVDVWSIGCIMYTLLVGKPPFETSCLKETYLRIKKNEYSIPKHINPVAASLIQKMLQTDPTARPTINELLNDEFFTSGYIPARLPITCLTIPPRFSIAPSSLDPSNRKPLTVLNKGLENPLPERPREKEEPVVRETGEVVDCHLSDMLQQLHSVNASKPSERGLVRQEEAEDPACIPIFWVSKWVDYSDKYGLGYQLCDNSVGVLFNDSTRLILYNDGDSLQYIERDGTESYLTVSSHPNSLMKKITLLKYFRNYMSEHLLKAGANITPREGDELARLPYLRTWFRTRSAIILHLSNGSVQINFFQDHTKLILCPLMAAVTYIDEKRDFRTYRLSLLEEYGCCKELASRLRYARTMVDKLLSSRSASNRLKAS

For `C=C(C)[C@H]1CN[C@H](C(=O)O)[C@H]1CC(=O)O` [kainic acid], in the assay with brain p-synuclein, the “p-synuclein levels in brain” value was “Increased levels”.

On to `CC[C@@H]1C(=O)N(C)c2cnc(Nc3ccc(C(=O)NC4CCN(C)CC4)cc3OC)nc2N1C1CCCC1` [BI 2536, 4-[[(7r)-8-cyclopentyl-7-ethyl-5,6,7,8-tetrahydro-5-methyl-6-oxo-2-pteridinyl]amino]-3-methoxy-n-(1-methyl-4-piperidinyl)-benzamide], for which, in the assay with panel of 260 kinases, the “inhibition in panel of 260 kinases” value was “very potent in inhibiting PLK2 and PLK3”. In addition, the pEC50 in assay [1] (HEK293, read-out: EC50, Endogenous Kinase (293)) was 7.27; in assay [1] (HEK293, read-out: EC50 Based on the Percent Inhibition of Synuclein Phosphorylation, Synuclein + Vector) it was 7.00; in assay [1] (HEK293, read-out: EC50 synuclein phosphorylation, endogenous kinase), 7.00; in assay [2] (most EC50 values, all cellular paradigms), at least 7.00; in [3] (Mus musculus, read-out: EC50, E46K-Syn TG MCC), over 7.00; in assay [3] (setting [8]) it was 7.04. Moreover, the pEC50 in assay [3] (setting [9]) is over 7.00.

Turning to `CN(C)c1nc2c(Br)c(Br)c(Br)c(Br)c2[nH]1` [DMAT, 2-Dimethylamino-4,5,6,7-tetrabromo-1H-benzimidazole], the pEC50 was 4.55 in assay [4]; 4.57 at PLK1 (HEK-293, Example 16, Table 21, read-out: EC50 Based on the Percent Inhibition of Synuclein Phosphorylation, Synuclein + PLK1); 4.70 in assay [5]; 4.73 on PLK2 [6] (293 cells, Table 18, read-out: EC50, Over-Expressed PLK2 (293)); 4.86 on PLK2 [6] (HEK-293, Example 16, Table 21, read-out: EC50 Based on the Percent Inhibition of Synuclein Phosphorylation, Synuclein + PLK2); 4.48 in [1] (HEK293, 293 cells, Table 18, read-out: EC50, Endogenous Kinase (293)). For the same compound, the pEC50 is 4.25 in assay [1] (HEK293, HEK-293, Example 16, Table 21, read-out: EC50 Based on the Percent Inhibition of Synuclein Phosphorylation, Synuclein + Vector); 4.25 in assay [1] (HEK293, HEK-293, synuclein only, read-out: EC50 synuclein phosphorylation, endogenous kinase); 4.43 on PLK3 (HEK-293, Example 16, Table 21, read-out: EC50 Based on the Percent Inhibition of Synuclein Phosphorylation, Synuclein + PLK3); 4.48 to 4.80 in assay [2] (most of the cellular paradigms / cell types tested); 4.78 in assay [3] (E46K-Synuclein transgenic mouse cortical cultures, read-out: EC50, E46K-Syn TG MCC); 4.67 in assay [3] (setting [8]). The pEC50 in [3] (setting [9]) is 4.73. Besides, the “rank order of potency, RVM E46K-Synuclein caPLK2” value in [4] is on record as 4. For the same compound, the “Rank Order of Potency Based on Percent Inhibition of Synuclein Phosphorylation, Synuclein + PLK1” value on PLK1 (HEK-293, Table 22) worked out at 3. Moreover, in assay [5], the “rank order of potency, RVM E46K-Synuclein” value is on record as 4. Besides, the “rank order of potency, Over-Expressed PLK2 (293)” value on PLK2 [6] (293 cells, Table 19) worked out at 4. Moreover, the “Rank Order of Potency Based on Percent Inhibition of Synuclein Phosphorylation, Synuclein + PLK2” value at PLK2 [6] (HEK-293, Table 22) turned out to be 2. Further, the pIC50 on PLK2 [7] (PLK2-driven synuclein phosphorylation, read-out: IC50 in the in vitro biochemical assay) was 5.68. Moreover, the “rank order of potency, Straight Biochemical” value on PLK2 [7] (rank among 8 inhibitors) worked out at 2. The “rank order of potency, Endogenous Kinase (293)” value in [1] (293 cells, Table 19) was found to be 3. In [1] (HEK-293, Table 22), the “Rank Order of Potency Based on Percent Inhibition of Synuclein Phosphorylation, Synuclein + Vector” value came out at 2. On PLK3 (HEK-293, Table 22), the “Rank Order of Potency Based on Percent Inhibition of Synuclein Phosphorylation, Synuclein + PLK3” value was found to be 2. Also, the “rank order of potency, E46K-Syn TG MCC” value in [3] (E46K-Synuclein transgenic mouse cortical cultures) was 4. The “rank order of potency, Swiss-Webster MCC” value in assay [3] (Swiss-Webster mouse cortical cultures) is on record as 4. Also, the “rank order of potency, WT-MCC” value in assay [3] (WT mouse cortical cultures) was 4. Moreover, the “Rank Order of Potency Based on Percent Inhibition of Synuclein Phosphorylation, Synuclein + PLK4” value at PLK4 was 2.
